Measurements published in ChEMBL document CHEMBL5230156, “Chromosome Region Maintenance 1 (XPO1/CRM1) as an Anticancer Target and Discovery of Its Inhibitor” (J Med Chem, 2021).
pEC50, pIC50: −log10 of the molar value.

Legend:
[1] = Inhibition of HIV Rev activity; design: species or system Human immunodeficiency virus
[2] = Inhibition of nuclear export in human HeLa cells; type: functional, cell-based
HCT-15 [3] = test: Inhibition of colony formation in human HCT-15 cells at 2 uM incubated for 14 days by crystal violet staining based cell clonogenic assay; type: functional; conditions: HCT-15, 336 h, time 14 day
HCT-15 [4] = test: Anticancer activity against human HCT-15 cells assessed as decrease in invading cells at 1 uM measured after 36 hrs; type: functional
HCT-15 [5] = test: Anticancer activity against human HCT-15 cells assessed as decrease in invading cells at 0.5 uM measured after 36 hrs; type: functional
HCT-15 [6] = test: Inhibition of colony formation in human HCT-15 cells at 1 uM incubated for 14 days by crystal violet staining based cell clonogenic assay; type: functional; conditions: HCT-15, 336 h, time 14 day
HCT-15 [7] = test: Antiproliferative activity against human HCT-15 cells assessed as cell viability measured after 3 hrs by CCK-8 assay; type: functional, cell-based; conditions: HCT-15, 3 h
HT-29 = test: Antiproliferative activity against human HT-29 cells assessed as cell viability measured after 3 hrs by CCK-8 assay; type: functional, cell-based; conditions: HT-29, 3 h
HCT-15 [8] = test: Inhibition of colony formation in human HCT-15 cells at 4 uM incubated for 14 days by crystal violet staining based cell clonogenic assay; type: functional; conditions: HCT-15, 336 h, time 14 day
HCT-15 [9] = test: Antitumor activity against CRM1 knockout human HCT-15 cells; type: functional, cell-based
HCT-15 [10] = test: Antitumor activity against wild type human HCT-15 cells; type: functional, cell-based
HeLa = test: Growth inhibition of human HeLa cells measured after 48 hrs by MTT assay; type: functional, cell-based
SGC-7901 [11] = test: Growth inhibition of human SGC-7901 cells assessed as inhibition rate at 100 uM relative to control; type: functional
SGC-7901 [12] = test: Growth inhibition of human SGC-7901 cells assessed as inhibition rate at 50 uM relative to control; type: functional
SGC-7901 [13] = test: Growth inhibition of human SGC-7901 cells assessed as inhibition rate at 5 uM relative to control; type: functional
SGC-7901 [14] = test: Growth inhibition of human SGC-7901 cells assessed as inhibition rate at 150 uM relative to control; type: functional
SMMC-7721 [15] = test: Antitumor activity against human SMMC-7721 cells measured after 6 hrs; type: functional, cell-based; conditions: SMMC-7721, 6 h
SMMC-7721 [16] = test: Antitumor activity against human SMMC-7721 cells measured after 24 hrs; type: functional, cell-based; conditions: SMMC-7721, 24 h
[17] = Cytotoxicity against human NL9980 cells assessed as inhibition of tumor growth measured after 72 hrs by MTT assay; type: functional, cell-based; conditions: NL9980, 72 h
SMMC-7721 [18] = test: Antitumor activity against human SMMC-7721 cells measured after 12 hrs; type: functional, cell-based; conditions: SMMC-7721, 12 h
[19] = Cytotoxicity against human L9981 cells assessed as inhibition of tumor growth measured after 72 hrs by MTT assay; type: functional, cell-based; conditions: L9981, 72 h
NSCLC = test: Antitumor activity against human NSCLC cells; type: functional, cell-based
SK-N-BE(2) = test: Antiproliferative activity against human SK-N-BE(2) cells by CCK-8 assay; type: functional, cell-based; conditions: SKNBE2
SH-SY5Y = test: Antiproliferative activity against human SH-SY5Y cells by CCK-8 assay; type: functional, cell-based

Question: With `CC1=C(COCCC(C)(C)C)C(=O)N(Nc2ccc(C(F)(F)F)c(Cl)n2)C1=O` as the compound, how does the pIC50 [1] read?
Answer: The pIC50 was 5.26.

Question: With `CC(C)CCNC/C=C/[S+]([O-])c1cc(C(F)(F)F)cc(C(F)(F)F)c1` (stereo not given) as the compound, how does the pEC50 [2] read?
Answer: Its pEC50 is 5.49.

Question: Which results are given for `CC1=C(C)C(=O)N(Nc2ccc(Cl)c(Cl)n2)C1=O`?
Answer: inhibition at 2 µM (HCT-15 [3]): 83.2%; inhibition at 1 µM (HCT-15 [4]): 67%; inhibition at 0.5 µM (HCT-15 [5]): 44%; inhibition at 1 µM (HCT-15 [6]): 58.5%; pIC50 (HCT-15 [7]): 5.92; pIC50 (HT-29): 6.01; inhibition at 4 µM (HCT-15 [8]): 91.4%

Question: With `[O-][S+](/C=C/CCN=C=S)c1cc(C(F)(F)F)cc(C(F)(F)F)c1` (stereo not given) as the compound, how does the pIC50 (HCT-15 [9]) read?
Answer: The pIC50 was 4.85.

Question: What about the pIC50 (HCT-15 [10]) of the same compound?
Answer: The pIC50 was 6.82.

Question: With `COc1cc(/C=C/C(=O)CC(=O)/C=C/c2ccc(O)c(OC)c2)ccc1O` [CURCUMIN] as the compound, how does the pIC50 (HeLa) read?
Answer: The pIC50 was 4.49.

Question: Which results are given for `C=C1C(=O)[C@]23[C@H](O)[C@H]1CC[C@H]2[C@@]12CO[C@]3(O)[C@@H](O)[C@@H]1C(C)(C)CC[C@@H]2O` [ORIDONIN]?
Answer: inhibition at 100 µM (SGC-7901 [11]): 75%; inhibition at 50 µM (SGC-7901 [12]): 35%; inhibition at 5 µM (SGC-7901 [13]): 20%; inhibition at 150 µM (SGC-7901 [14]): 90%

Question: With `COc1cc(/C=C/C(=O)N2CCC=CC2=O)cc(OC)c1OC` [PIPLARTINE] as the compound, how does the pIC50 (HeLa) read?
Answer: The pIC50 was 4.79.

Question: With `CC1=CC(=O)c2c(O)cccc2C1=O` [PLUMBAGIN] as the compound, how does the pIC50 (SMMC-7721 [15]) read?
Answer: The pIC50 was 4.44.

Question: What about the pIC50 (SMMC-7721 [16]) of the same compound?
Answer: Its pIC50 is 5.61.

Question: What about the pIC50 [17] of the same compound?
Answer: The pIC50 was 5.12.

Question: And the pIC50 (SMMC-7721 [18])?
Answer: The pIC50 was 5.27.

Question: And the pIC50 [19]?
Answer: The pIC50 was 5.05.

Question: With `O=C(/C=C\n1cnc(-c2cc(C(F)(F)F)cc(C(F)(F)F)c2)n1)NNc1cnccn1` [SELINEXOR] as the compound, how does the pIC50 (NSCLC) read?
Answer: The pIC50 was 7.60.

Question: With `O=C(/C=C\n1cnc(-c2cc(C(F)(F)F)cc(C(F)(F)F)c2)n1)NNc1ccccn1` [VERDINEXOR] as the compound, how does the pIC50 (SK-N-BE(2)) read?
Answer: The pIC50 was 5.85.

Question: And the pIC50 (SH-SY5Y)?
Answer: Its pIC50 is 6.52.
